From US20070003531A1, “Methods for improving immunotherapy by enhancing survival of antigen-specific cytotoxic T lymphocytes” (University of Connecticut, priority 2005, published 2007)
Entries after “also recorded” stand apart in the source; their conditions may differ.

Key:
[1] = system: c-Jun phosphorylation (JNK activation) in CTL; assay: c-Jun phosphorylation in CTL during AICD (immunoblot); assay type: cell-based, human; settings: CTL re-stimulated with Mart-127-35 peptide after pre-incubation
Procedure: FIG. 1. […] (A) Effect of the JNK inhibitor SP600125 on AICD in the MART-127-35 epitope specific CTL. Histogram represents FACS analysis of the percent of MART-127-35 epitope specific CTLs that were tetramer positive and annexin negative after restimulation with MAGE-3271-279 control peptide (M3) pulsed T2 cells or MART-127-35 peptide (M1) pulsed T2 cells either alone or re-stimulated after pre-incubation with JNK inhibitor SP600125, p38-kinase inhibitor SB203580, ERK1/2 inhibitor PD98059 or caspase-inhibitor z-VAD-fink. MAGE-3271-279. (B) JNK activation results in phosphorylation of c-Jun during AICD in CTL that is blocked by SP600125. […] (i) Jurkat cells were treated with PMA+ionomycin in the absence or presence of SP600125 and JNK activation (c-Jun phosphorylation) was assessed with anti-phospho-c-Jun antibody. […] (ii) Jurkat cells were treated with Staurosporine for 1 and 4 hrs in the absence (S) or presence of caspase inhibitor, z-VAD-fmk (CI), JNK inhibitor, SP600125 (SP) or ERK1/2 inhibitor PD98059 (PD) and cleavage of PARP was detected by immunoblotting, using actin as a loading control. […] Percent annexin positive cells in all samples were quantified by FACS analysis and shown below the blot
Immunoblot analysis. […] Proteins bound to the resin were washed three times with RIPA buffer, re-suspended in sample buffer, and analyzed by SDS-PAGE and immunoblotting.

[2] = system: AIF translocation in MART-127-35 specific CTL; assay: Mitochondrio-nuclear translocation/release of AIF in CTL during AICD; assay type: cell-based, human; settings: CTL restimulated by cognate epitope
Excerpt: (§1) FIG. 14. Nuclear translocation of AIF and effect of SP600125 on the AIF release and such translocation. The MART-1 epitope specific CTLs generated in the in vitro CTL generation protocol were restimulated by the cognate epitope or a control epitope in the presence or absence of the JNK inhibitor SP600125. (A) Western blot of heavy membrane faction (HM) and cytosolic fraction (S-100) of control CTL (C) and CTLs restimulated by the cognate peptide (M1). As shown, AIF is released in the cytosol of CTLs encountering the cognate peptide without any release of cytochrome c. (B) Effect of SP600125 on AIF release in CD3 induced AICD in Jurkat cells. As shown, AIF is released without cytochrome c release in these cells and SP600125 interferes with the AIF release. (C) Densitometric analysis of the SP600125 effect on AIF release.
Sub-cellular Fractionation. Sub-cellular fractionation was done according to Gross, et al., with minor modifications. Heavy membrane and light membrane fractions were solublized in RIPA buffer supplemented with protease inhibitors and the proteins extracted from heavy membrane (HM), light membrane (LM) and supernatant (S-100) fractions were analyzed by immuno-blot analysis.
Immunofluorescence microscopy. […] The cells were fixed with 4% para-formaldehyde in PBS and stained with appropriate antibodies for co-localization of proteins by fluorescence microscopy. […]

[3] = system: AIF release in Jurkat cells; assay: AIF release in CD3 induced AICD in Jurkat cells; assay type: cell-based, human
Excerpt: as §1

[4] = system: MART-127-35 epitope specific CTLs; assay: IFN-γ response assay (ELISA); assay type: cell-based, human
Procedure: IFN-γ response assay for the effector cells has been described previously. Briefly, the effector cells were co-cultured with the peptide pulsed (1 μg/ml) T2 cells. After 4-16 h, culture supernatants were harvested and IFN-γ was measured by ELISA as per manufacturer's protocol (R & D Systems, MN).

helper T cells = assay: AICD in helper T cells; assay type: cell-based
Excerpt: Thus, JNK inhibitors, when administered alone or in combination with other therapeutics, have utility for the treatment of diseases, including AIDS, for which the death of helper T cells is a factor in the etiology, mechanism or progression of that disease.

O=C1c2ccccc2-c2n[nH]c3cccc1c23 [SP600125, anthra[1,9-cd]pyrazol-6(2H)-one]
c-Jun activation (phosphorylation) in CTL during AICD [1]: blocked
mitochondrio-nuclear translocation/release of AIF in CTL [2]: blocks; also recorded: blocking effect
AIF release in Jurkat cells [3]: interferes
IFN-γ synthesis by rescued CTLs ([4]; five days continued culture in IL-15 without the inhibitor): regained
IFN-γ response by CTLs in presence of inhibitor ([4]; peptide pulsed T2 cells, inhibitor 25 μM): inhibited; also recorded: negatively regulates
AICD in helper T cells (helper T cells): inhibit/prevent
